Laboratory results as given in paper PMC7382816 (BMC Pharmacology & Toxicology, 2020).
Like-named read-outs stand apart in the source and are kept apart here.

Key:
[1] = 40 mg; ref [27] Huber et al.; cited from earlier work
[2] = Single-dose pharmacokinetics in healthy volunteers under fasting and fed (high-fat breakfast) conditions, plasma concentrations by HPLC-MS, non-compartmental analysis; type: in vivo, human; set-up: Ke: unit not given here; conditions: for AUC(0-inf) / CL/F / Vd/F / half-life / Cmax / Tmax: human, plasma; for Cmax: read-out: Cmax
Text: The bioequivalence clinical trials were phase I, randomized, open-label, crossover, single-centre, with two periods separated by a 7-day washout stage. Subjects were randomised to one of the two treatment sequences, RT or TR where R was the reference formulation and T was the test formulation. Each of the clinical trial was crossover for evaluation of a test formulation compared to a reference formulation either under fed or fasting conditions. […] The treatments were allocated in a balanced manner on every inclusion day (blocks of 4 subjects). Our study adheres to CONSORT guidelines. […] Sample processing, genotyping for CYP2C19 and drug quantification were performed according to Román et al. […] Pharmacokinetic parameters were estimated from the plasma concentration–time data by non-compartmental analysis (WinNonlin Professional, version 2.0., Pharsight Corporation, USA) as reported by Román et al. […] WinNonLin Professional software version 2.0 was used for the statistical analysis. Pharmacokinetic parameters were log-transformed, and AUC and Cmax were adjusted for dose and weight. The values of pharmacokinetic parameters were expressed as mean ± standard deviation.

[3] = both sexes, oral, only CYP2C19*1/*1 subjects, Fast, men and women, mean ± SD
[4] = both sexes, oral, only CYP2C19*1/*1 subjects, Fed, men and women, mean ± SD
[5] = both sexes, po, Fast, all subjects, single oral dose, mean ± SD
[6] = both sexes, po, Fed (high-fat breakfast), all subjects, single oral dose, mean ± SD
[7] = female, oral, only CYP2C19*1/*1 subjects, Fast, women, mean ± SD
[8] = female, oral, only CYP2C19*1/*1 subjects, Fed, women, mean ± SD
[9] = female, po, Fast, women, single oral dose, mean ± SD
[10] = female, po, Fed, women, single oral dose, mean ± SD
[11] = male, oral, only CYP2C19*1/*1 subjects, Fast, men, mean ± SD
[12] = male, oral, only CYP2C19*1/*1 subjects, Fed, men, mean ± SD
[13] = male, po, Fast, men, single oral dose, mean ± SD
[14] = male, po, Fed, men, single oral dose, mean ± SD

## COc1ccnc(C[S+]([O-])c2nc3ccc(OC(F)F)cc3[nH]2)c1OC (stereo not drawn) [Pantoprazole, pantoprazole]
[1]
  effect of concomitant intake of a standard breakfast on bioavailability: no effect on bioavailability
[2]; Fast, all subjects, single oral dose, mean ± SD
  Ke: 0.61 ± 0.21
[2]; Fast, men, single oral dose, mean ± SD
  Ke: 0.56 ± 0.23
[2]; Fast, women, single oral dose, mean ± SD
  Ke: 0.65 ± 0.18
[2]; Fed (high-fat breakfast), all subjects, single oral dose, mean ± SD
  Ke: 0.63 ± 0.21
[2]; Fed, men, single oral dose, mean ± SD
  Ke: 0.61 ± 0.23
[2]; Fed, women, single oral dose, mean ± SD
  Ke: 0.65 ± 0.19
[2]; [3]
  AUC(0-inf): 6090 ± 2920 ng·h/mL
  CL/F: 2 mL/min/kg
  Vd/F: 0.18 ± 0.03 L/kg
  half-life: 1.2 ± 0.4 h
  Cmax: 2540 ± 836 ng/mL
[2]; both sexes, oral, only CYP2C19*1/*1 subjects, Fast, men and women, mean ± SD, read-out: Tmax
  Tmax: 3 ± 0.7 h
[2]; [4]
  AUC(0-inf): 4690 ± 2300 ng·h/mL
  CL/F: 2.67 mL/min/kg
  Vd/F: 0.24 ± 0.05 L/kg
  half-life: 1.2 ± 0.5 h
  Cmax: 2660 ± 531 ng/mL
[2]; both sexes, oral, only CYP2C19*1/*1 subjects, Fed, men and women, mean ± SD, read-out: Tmax
  Tmax: 5.7 ± 1.2 h
[2]; both sexes, oral, under fasting conditions, range among subjects, read-out: Tmax range
  Tmax: 1.5 to 5 h
[2]; both sexes, oral, under fed conditions, range among subjects, read-out: Tmax range
  Tmax: 1 to 21 h
[2]; [5]
  AUC(0-inf): 6950 ± 3290 ng·h/mL
  CL/F: 1.83 mL/min/kg
  Vd/F: 0.17 ± 0.03 L/kg
  half-life: 1.3 ± 0.6 h
  Cmax: 2780 ± 862 ng/mL
[2]; both sexes, po, Fast, all subjects, single oral dose, mean ± SD, read-out: Tmax
  Tmax: 3 ± 0.8 h
[2]; [6]
  AUC(0-inf): 4630 ± 2020 ng·h/mL
  CL/F: 2.67 mL/min/kg
  Vd/F: 0.26 ± 0.1 L/kg
  half-life: 1.3 ± 0.6 h
  Cmax: 2650 ± 603 ng/mL
[2]; both sexes, po, Fed (high-fat breakfast), all subjects, single oral dose, mean ± SD, read-out: Tmax
  Tmax: 7 ± 3 h
[2]; fed vs fasting, all subjects
  AUC lower under fed conditions: 33%
  Delay of mean Tmax (absorption) by food: around 4 h
[2]; fed vs fasting, only subjects with CYP2C19*1/*1
  Delay of Tmax by food: 2.7 h
[2]; [7]
  AUC(0-inf): 7820 ± 2700 ng·h/mL
  CL/F: 1.83 mL/min/kg
  Vd/F: 0.16 ± 0.04 L/kg
  half-life: 1.1 ± 0.2 h
  Cmax: 3230 ± 685 ng/mL
[2]; female, oral, only CYP2C19*1/*1 subjects, Fast, women, mean ± SD, read-out: Tmax
  Tmax: 2.9 ± 0.8 h
[2]; [8]
  AUC(0-inf): 4910 ± 2190 ng·h/mL
  CL/F: 2.83 mL/min/kg
  Vd/F: 0.25 ± 0.06 L/kg
  half-life: 1.1 ± 0.3 h
  Cmax: 2790 ± 476 ng/mL
[2]; female, oral, only CYP2C19*1/*1 subjects, Fed, women, mean ± SD, read-out: Tmax
  Tmax: 6.2 ± 1.1 h
[2]; [9]
  AUC(0-inf): 7320 ± 2710 ng·h/mL
  CL/F: 1.83 mL/min/kg
  Vd/F: 0.16 ± 0.03 L/kg
  half-life: 1.1 ± 0.3 h
  Cmax: 3240 ± 859 ng/mL
[2]; female, po, Fast, women, single oral dose, mean ± SD, read-out: Tmax
  Tmax: 2.9 ± 0.8 h
[2]; [10]
  AUC(0-inf): 4660 ± 1790 ng·h/mL
  CL/F: 2.83 mL/min/kg
  Vd/F: 0.28 ± 0.12 L/kg
  half-life: 1.2 ± 0.7 h
  Cmax: 2700 ± 614 ng/mL
[2]; female, po, Fed, women, single oral dose, mean ± SD, read-out: Tmax
  Tmax: 8.4 ± 3.7 h
[2]; [11]
  AUC(0-inf): 4780 ± 2470 ng·h/mL
  CL/F: 2.33 mL/min/kg
  Vd/F: 0.2 ± 0.02 L/kg
  half-life: 1.3 ± 0.5 h
  Cmax: 2020 ± 493 ng/mL
[2]; male, oral, only CYP2C19*1/*1 subjects, Fast, men, mean ± SD, read-out: Tmax
  Tmax: 3 ± 0.7 h
[2]; [12]
  AUC(0-inf): 4520 ± 2520 ng·h/mL
  CL/F: 2.5 mL/min/kg
  Vd/F: 0.23 ± 0.03 L/kg
  half-life: 1.2 ± 0.6 h
  Cmax: 2560 ± 581 ng/mL
[2]; male, oral, only CYP2C19*1/*1 subjects, Fed, men, mean ± SD, read-out: Tmax
  Tmax: 5.3 ± 1.1 h
[2]; [13]
  AUC(0-inf): 6580 ± 3830 ng·h/mL
  CL/F: 1.83 mL/min/kg
  Vd/F: 0.18 ± 0.03 L/kg
  half-life: 1.5 ± 0.7 h
  Cmax: 2320 ± 581 ng/mL
[2]; male, po, Fast, men, single oral dose, mean ± SD, read-out: Tmax
  Tmax: 3.1 ± 0.8 h
[2]; [14]
  AUC(0-inf): 4610 ± 2270 ng·h/mL
  CL/F: 2.5 mL/min/kg
  Vd/F: 0.25 ± 0.08 L/kg
  half-life: 1.3 ± 0.5 h
  Cmax: 2590 ± 601 ng/mL
[2]; male, po, Fed, men, single oral dose, mean ± SD, read-out: Tmax
  Tmax: 5.6 ± 1.1 h
[2]; only CYP2C19*1/*1 subjects, Fast, men and women, mean ± SD
  Ke: 0.64 ± 0.19
[2]; only CYP2C19*1/*1 subjects, Fast, men, mean ± SD
  Ke: 0.64 ± 0.23
[2]; only CYP2C19*1/*1 subjects, Fast, women, mean ± SD
  Ke: 0.63 ± 0.12
[2]; only CYP2C19*1/*1 subjects, Fed, men and women, mean ± SD
  Ke: 0.67 ± 0.20
[2]; only CYP2C19*1/*1 subjects, Fed, men, mean ± SD
  Ke: 0.67 ± 0.25
[2]; only CYP2C19*1/*1 subjects, Fed, women, mean ± SD
  Ke: 0.68 ± 0.14
